Consider 2 molecules from publication PMC6268628, “Steroidal and Phenolic Glycosides from the Bulbs of Lilium pumilum DC and Their Potential Na^+/K^+ ATPase Inhibitory Activity” (Molecules, 2012).

Like-named read-outs stand apart in the source and are kept apart here.

This test concerns the target T1, Ouabain sensitive dog kidney Na^+/K^+ ATPase (Canis lupus familiaris, UniProt P50997).
T1 construct: Ouabain sensitive dog kidney Na^+/K^+ ATPase was obtained from Sigma (Shanghai, China); purchased Sigma (Shanghai, China); host or cells: dog kidney (tissue-derived enzyme preparation)
Description: Assay of Na+/K+ ATPase activity (released inorganic phosphate, absorbance at 660 nm). Format: biochemical. As for the experimental part:
Specific rotation measurements were recorded on a Perkin-Elmer 242 MC polarimeter. UV spectra were recorded on a Hewlett-Packard HP-845 UV-VIS spectrophotometer. IR spectra were recorded on a Nicolet 470 spectrometer and MS on a Varian MAT-212 mass spectrometer and a Shimadzu GC-MS model QP2010 Plus spectrophotometer, respectively. NMR spectra were recorded on a Bruker AM-400 spectrameter (400 MHz for ^1H-NMR) or a Bruker DRX-500 (500 MHz for ^1H-NMR) spectrameter using standard Bruker pulse programs. Chemical shifts are given as δ values with reference to tetramethylsilane (TMS) as internal standard. Column chromatography separations were carried out on silica gel (200–300 mesh, Qingdao Haiyang Chemical Co. Ltd, Qingdao, China), ODS (50 mesh, AA12S50, YMC), Diaion HP-20 (Pharmacia, Peapack, NJ, USA) and Sephadex LH-20 (Pharmacia, Peapack, NJ, USA). Ouabain sensitive dog kidney Na^+/K^+ ATPase was obtained from Sigma (Shanghai, China). All other chemicals used were of biochemical reagent grade.
The Na^+/K^+ ATPase activity was assayed according to the reported method with some modification. […] The released inorganic phosphate was determined by the following method. […] After 25 min, the absorbance at 660 nm was recorded.

Turning to `CC1CCC2(OC1)OC1CC3C4CC(=O)C5CC(OC6OC(CO)C(O)C(O)C6OC6OC(C)C(O)C(O)C6O)CCC5(C)C4CCC3(C)C1C2C` [Compound 3, (25R)-3β-hydroxyl-5α-spirostan-6-one 3-O-α-L-rhamnopyranosyl-(1→2)-β-D-glucopyranoside], the IC50 (0.02 units enzyme, 3 mM ATP, pH 7.3, 37 °C, 20 min, 5% DMSO, read-out: IC50, inhibitory activity on Na^+/K^+ ATPase) was determined as 73 µM.
For the molecule `C[C@@H]1O[C@@H](O[C@H]2C[C@@H](O)[C@]3(CO)[C@H]4[C@H](O)C[C@]5(C)[C@@H](C6=CC(=O)OC6)CC[C@]5(O)[C@@H]4CC[C@]3(O)C2)[C@H](O)[C@H](O)[C@H]1O` [Ouabain, reference compound], the IC50 amounted to 1 µM.
